In patent publication US6720423B2, “Dihydrobenzofuran and dihydrobenzothiophene 2,4-pentadienoic acid derivatives having selective activity for retinoid X (RXR) receptors” (Allergan, Inc., priority 2002, dated 2004):

Columns and labels:
RXRγ = molecular target: T1, RXRγ (UniProt P28705); assay: ligand binding assay, RXRγ; set-up: other: RXRγ; last entry of cell; conditions: last entry of cell, read-out: RXR Bind Ki (nM) γ
T1 sequence (P28705 1-463): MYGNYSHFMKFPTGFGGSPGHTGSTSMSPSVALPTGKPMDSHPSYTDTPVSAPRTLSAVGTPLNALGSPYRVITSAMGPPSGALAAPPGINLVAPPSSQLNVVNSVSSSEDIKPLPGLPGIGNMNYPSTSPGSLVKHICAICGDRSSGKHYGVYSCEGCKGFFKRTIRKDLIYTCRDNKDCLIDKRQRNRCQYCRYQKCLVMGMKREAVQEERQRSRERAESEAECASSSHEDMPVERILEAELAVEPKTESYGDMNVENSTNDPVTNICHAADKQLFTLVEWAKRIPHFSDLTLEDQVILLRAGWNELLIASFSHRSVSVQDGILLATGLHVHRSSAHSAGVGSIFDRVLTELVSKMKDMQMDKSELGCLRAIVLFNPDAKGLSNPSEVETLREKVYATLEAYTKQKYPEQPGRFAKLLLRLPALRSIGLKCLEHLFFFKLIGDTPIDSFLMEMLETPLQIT
Text: (§1) A holoreceptor transactivation assay and a ligand binding assay which measure the antagonist/agonist like activity of the compounds of the invention, or their ability to bind to the several retinoid receptor subtypes, respectively, are described in published PCT Application No. WO WO93/11755 (particularly on pages 30-33 and 37-41) published on Jun. 24, 1993, the specification of which is also incorporated herein by reference. A detailed experimental procedure for holoreceptor transactivations has been described by Heyman et al. Cell 68, 397-406, (1992); Allegretto et al. J. Biol. Chem. 268, 26625-26633, and Mangelsdorf et al. The Retinoids: Biology, Chemistry and Medicine, pp 319-349, Raven Press Ltd., New York, which are expressly incorporated herein by reference. The results obtained in this assay are expressed in EC50 numbers, as they are also in the chimeric receptor transactivation assay. The results of ligand binding assay are expressed in Kd numbers. (See Cheng et al. Biochemical Pharmacology Vol. 22 pp 3099-3108, expressly incorporated herein by reference.)

RARα = molecular target: T2, RARα (Homo sapiens, UniProt P10276); assay: ligand binding assay, RARα; conditions: second entry of cell, read-out: RAR Bind. Ki (nM) α
T2 sequence (P10276 1-462): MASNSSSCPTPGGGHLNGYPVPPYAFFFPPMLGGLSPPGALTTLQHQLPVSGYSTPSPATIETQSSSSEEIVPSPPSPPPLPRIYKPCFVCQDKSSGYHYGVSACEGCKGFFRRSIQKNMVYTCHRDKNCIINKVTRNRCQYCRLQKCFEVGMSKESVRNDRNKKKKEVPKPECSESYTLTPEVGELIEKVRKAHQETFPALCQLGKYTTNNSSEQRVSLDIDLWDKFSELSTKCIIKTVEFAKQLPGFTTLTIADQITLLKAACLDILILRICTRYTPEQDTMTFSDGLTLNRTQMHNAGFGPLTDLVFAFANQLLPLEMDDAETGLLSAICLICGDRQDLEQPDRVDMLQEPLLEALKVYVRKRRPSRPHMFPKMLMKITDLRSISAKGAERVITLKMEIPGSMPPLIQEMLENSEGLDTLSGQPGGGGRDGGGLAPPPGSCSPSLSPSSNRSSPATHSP
Text: as §1

RXRα = molecular target: T3, RXRα (Homo sapiens, UniProt P19793); assay: receptor transactivation assay, RXRα; format: cell-based; conditions: first entry of cell, read-out: RXR Trans. EC50 (nM) α
T3 construct: the only RXRα plasmid printed
T3 sequence (P19793 227-462 limits assumed): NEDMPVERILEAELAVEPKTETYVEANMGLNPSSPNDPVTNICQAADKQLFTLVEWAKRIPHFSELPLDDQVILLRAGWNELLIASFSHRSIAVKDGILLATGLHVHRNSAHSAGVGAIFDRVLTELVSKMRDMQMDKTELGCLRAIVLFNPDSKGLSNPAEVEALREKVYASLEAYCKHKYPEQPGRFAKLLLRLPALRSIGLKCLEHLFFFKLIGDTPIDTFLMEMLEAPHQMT
Text: as §1

RARβ = molecular target: T4, RARβ (Homo sapiens, UniProt P10826); assay: ligand binding assay, RARβ; conditions: second entry of cell, read-out: RAR Bind. Ki (nM) β
T4 sequence (P10826 1-455): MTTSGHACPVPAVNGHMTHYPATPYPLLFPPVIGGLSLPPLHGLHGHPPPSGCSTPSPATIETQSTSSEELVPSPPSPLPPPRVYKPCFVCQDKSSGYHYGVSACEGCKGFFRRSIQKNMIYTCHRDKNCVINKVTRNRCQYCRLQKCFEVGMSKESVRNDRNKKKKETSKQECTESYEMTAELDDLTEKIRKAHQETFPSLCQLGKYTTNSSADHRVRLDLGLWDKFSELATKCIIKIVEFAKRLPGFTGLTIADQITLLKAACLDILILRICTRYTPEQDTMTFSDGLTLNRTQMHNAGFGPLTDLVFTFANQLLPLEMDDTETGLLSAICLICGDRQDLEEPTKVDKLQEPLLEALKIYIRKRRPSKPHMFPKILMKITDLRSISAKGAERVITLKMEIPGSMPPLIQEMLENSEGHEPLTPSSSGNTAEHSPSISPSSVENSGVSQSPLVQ
Text: as §1

RXRβ = molecular target: T5, RXRβ (UniProt P28704); assay: receptor transactivation assay, RXRβ; format: cell-based; set-up: RXR Trans; other: RXRβ; first entry of cell; conditions: for EC50: first entry of cell, read-out: RXR Trans. EC50 (nM) β; for RXR Trans. β, number in parentheses after EC50: parenthesised number, not defined in the patent
T5 sequence (P28704 1-520): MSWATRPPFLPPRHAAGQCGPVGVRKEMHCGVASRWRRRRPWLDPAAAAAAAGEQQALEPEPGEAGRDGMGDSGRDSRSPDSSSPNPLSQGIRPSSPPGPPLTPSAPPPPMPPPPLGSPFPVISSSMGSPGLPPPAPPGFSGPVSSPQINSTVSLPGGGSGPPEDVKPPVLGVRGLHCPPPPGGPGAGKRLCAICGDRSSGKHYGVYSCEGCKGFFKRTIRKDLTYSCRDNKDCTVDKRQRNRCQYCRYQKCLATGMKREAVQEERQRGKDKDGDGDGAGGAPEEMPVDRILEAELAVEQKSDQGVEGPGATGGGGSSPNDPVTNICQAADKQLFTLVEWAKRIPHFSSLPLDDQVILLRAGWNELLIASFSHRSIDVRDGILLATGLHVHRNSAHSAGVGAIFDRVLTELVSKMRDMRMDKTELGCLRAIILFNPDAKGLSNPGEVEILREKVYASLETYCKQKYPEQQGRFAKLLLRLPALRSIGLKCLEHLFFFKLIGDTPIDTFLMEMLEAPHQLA
Text: as §1

Row | SMILES | Ki (RXRγ) [nM] | Ki (RARα) [nM] | EC50 (RXRα) [nM] | Ki (RARβ) [nM] | EC50 (RXRβ) [nM] | RXR Trans. β, number in parentheses after EC50 (RXRβ)
1 | CC(/C=C/[C@@H]1C[C@]1(C)c1cc(-c2c(C)cccc2C)c2c(c1)C(C)(C)CO2)=C\C(=O)O [Compound 24, 5-{(1 S 2S)-2-[7-(2,6-Dimethyl-phenyl)-3,3-dimethyl-2,3-dihydro-benzofuran-5-yl]-2-methyl-cyclopropyl}-3-methyl-penta-2E,4E-dienoic acid] | 4.8 | > 10000 | 0.52 | > 10000 | 6.7 | 125
2 | CC(/C=C/[C@@H]1C[C@]1(C)c1ccc2c(c1)C(C)(C)CO2)=C\C(=O)O [Compound 2, (6S,7S)-7-[5-(3,3-Dimethyl-2,3-dihydro-benzofuranyl)]-6.7-methano-3-methyl-octa-2E,4E-dienoic Acid] | 35 | > 10000 | 1.1 | > 10000 | 9.8 | 106
3 | CC(/C=C/[C@@H]1C[C@]1(C)c1cc(-c2ccc(F)cc2)c2c(c1)C(C)(C)CO2)=C\C(=O)O [Compound 34, (E)-3-((E)-2-{(1S,2S)-2-[7-(4-Fluoro-phenyl)-3,3-dimethyl-2,3-dihydro-benzofuran-5-yl]-2-methyl-cyclopropyl}-vinyl)-but-2-enoic acid] | 1.5 | 23000 | 0.37 | 8750 | 4.55 | 93
4 | CC(/C=C/[C@@H]1C[C@]1(C)c1cc(C)c2c(c1)C(C)(C)CO2)=C\C(=O)O [Compound 4, (6S,7S)-7-[5-(3,3,7-Trimethyl-2,3-dihydro-benzofuranyl)]-6,7-methano-3-methyl-octa-2E,4E-dienoic acid] | 9.9 | > 10000 | 2.9 | > 10000 | 21 | 108
5 | CC(/C=C/[C@@H]1C[C@]1(C)c1cc(C(C)C)c2c(c1)C(C)(C)CO2)=C\C(=O)O [Compound 8, (6S,7S)-7-[5-(3,3-Dimethyl-7-iso-propyl-2,3-dihydro-benzofuranyl)]-6,7-methano-3-methyl-octa-2E,4E-dienoic Acid] | 8.6 | 42000 | 0.159 | 41000 | 0.66 | 110
6 | CCCCCCCc1ccccc1-c1cc([C@@]2(C)C[C@H]2/C=C/C(C)=C/C(=O)O)cc2c1OCC2(C)C [Compound 28] | – | 2620 | 594 | 3740 | > 1000 | –
7 | CC(/C=C/[C@@H]1C[C@]1(C)c1cc(C(C)(C)C)c2c(c1)C(C)(C)CO2)=C\C(=O)O [Compound 10, (6S,7S)-7-[5-(3,3-Dimethyl-7-t-butyl-2,3-dihydro-benzofuranyl)]-6,7-methano-3-methyl-octa-2E,4E-dienoic acid] | 1.3 | 11000 | 0.55 | 19000 | 12 | 90
8 | CCCCC(O)CCc1cc([C@@]2(C)C[C@H]2/C=C/C(C)=C/C(=O)O)cc2c1OCC2(C)C (stereo partly drawn) [Compound 38, (E)-3-((E)-2-{(1S,2S)-2-[7-(3-Hydroxy-heptyl)-3,3-dimethyl-2,3-dihydro-benzofuran-5-yl]-2-methyl-cyclopropyl}-vinyl)-but-2-enoic acid] | 283 | > 10000 | 1950 | > 10000 | 1360 | –
9 | CCCCC(=O)CCc1cc([C@@]2(C)C[C@H]2/C=C/C(C)=C/C(=O)O)cc2c1OCC2(C)C [Compound 40] | 70 | 11000 | 330 | 22000 | 2040 | 103
10 | CC(/C=C/[C@@H]1C[C@]1(C)c1cc(CC(C)(C)C)c2c(c1)C(C)(C)CO2)=C\C(=O)O [Compound 12, 5-{(1S,2S) 2-[7-(2,2-Dimethyl-propyl)-3,3-dimethyl-2,3-dihydro-benzofuran-5-yl]-2-methyl-cyclopropyl}-3-methyl-penta-2E,4E-dienoic Acid] | 0.7 | 18000 | 0.246 | 9510 | 1.67 | 93
11 | CC(/C=C/[C@@H]1C[C@]1(C)c1cc(-c2ccc(C(C)(C)C)cc2)c2c(c1)C(C)(C)CO2)=C\C(=O)O [Compound 30, 5-{(1S, 2S)-2-[7-(4-tert-Butyl-phenyl)-3,3-dimethyl-2,3-dihydro-benzofuran-5-]-2-methyl-cyclopropyl}-3-methyl-pent-2E,4E-dienoic Acid] | 69.9 | > 10000 | 1520 | > 10000 | > 1000 | 50
12 | CC(/C=C/[C@@H]1C[C@]1(C)c1cc(CC2CCCCC2)c2c(c1)C(C)(C)CO2)=C\C(=O)O [Compound 16, (6S,7S)-7-[5-(7-Cyclohexylmethyl-3,3-dimethyl-2,3-dihydro-benzofuranyl)]-6,7-methano-3-methyl-octa-2E,4E-dienoic Acid] | 1.9 | 8800 | 0.215 | 9290 | 1.15 | 85
13 | CC(/C=C/[C@@H]1C[C@]1(C)c1cc(Cc2ccccc2)c2c(c1)C(C)(C)CO2)=C\C(=O)O [Compound 14, (6S,7S)-7-[5-(7-Benzyl-3,3-dimethyl-2,3-dihydro-benzofuranyl)]-6,7-methano-3-methyl-octa-2E,4E-dienoic Acid] | 9.2 | 8720 | 0.086 | 4770 | 0.515 | 114
